Measured values from US8637558B2 (Industry-Academic Cooperation Foundation, Chosun University, priority 2008, dated 2014).

target: 15-PGDH (Homo sapiens (Human), UniProt P15428); experiment: Assay for the activities of 15-PGDH inhibitors (formation of NADH at 340 nm); type: biochemical; details: purified 15-PGDH enzyme, 21 μM PGE2, 0.25 mM NAD+, pH 7.5; concentration inhibiting 50% of 15-PGDH activity
Method: <1-1> Expression and Purification of 15-PGDH
A 15-PGDH cDNA plasmid containing BamHI and EcoRI sites of the pGES-2T expression vector was used to transform Escherichia coli BL-21 lysS in accordance with the ordinarily used in the art. The transformed cells were grown in 500 mL LB medium containing 50 μg/mL ampicillin at 37° C. while being stirred at 220 rpm until the OD600 reached 0.6. Isopropyl β-D-thiogalactoside (1 mM) was added and the cells were allowed to grow for 12 hours at 25° C. Then, the pellets were harvested by centrifugation at 4000×g for 30 minutes at 4° C. The cell pallets were resuspended in 20 mL cell lysis buffer (1×PBS buffer (pH 7.4) containing 1 mM EDTA and 0.1 mM DTT) and sonicated (14×10 s at 4° C.). The disrupted cells were centrifuged at 4000×g for 20 minutes at 4° C. The supernatant was loaded slowly on a glutathione-sepharose 4B column, which was equilibrated at 4° C. with a cell lysis buffer (1×PBS buffer (pH 7.4) containing 1 mM EDTA and 0.1 mM DTT). The column was washed with the lysis buffer until OD280 reached below 0.005. Then, 15-PGDH was eluted from the glutathione-sepharose 4B column at room temperature for 5 minutes by using the elution buffer (50 mM Tris-HCl (pH 8.0) containing 10 mM reduced glutathione, 1 mM EDTA and 0.1 mM DTT). The concentration and the purity of the purified enzyme were determined by SDS-PAGE.
<1-2> Assay for the Activities of 15-PGDH Inhibitors
The absorbance of the reaction mixture was recorded at 340 nm so that the activities of the derivatives according to the present invention as 15-PGDH inhibitors were determined from a standard curve prepared from the absorbance of various concentrations of NADH at 340 nm.

Sequence of 15-PGDH (P15428 whole entry): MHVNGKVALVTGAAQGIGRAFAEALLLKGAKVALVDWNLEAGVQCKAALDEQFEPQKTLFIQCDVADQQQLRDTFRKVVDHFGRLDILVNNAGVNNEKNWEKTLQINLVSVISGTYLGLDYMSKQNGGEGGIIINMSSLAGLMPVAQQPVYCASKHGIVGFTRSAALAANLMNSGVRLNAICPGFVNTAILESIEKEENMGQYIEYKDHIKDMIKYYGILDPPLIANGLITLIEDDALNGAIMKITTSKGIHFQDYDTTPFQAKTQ

Row | Compound | IC50
1 | O=C1NC(=O)/C(=C/c2cccc(OCCc3ccccc3)c2Cl)S1 [Derivative 73, 5-(2-chloro-3-phenylethoxybenzylidene)thiazolidine-2,4-dione] | 0.122 µM
2 | O=C1NC(=O)/C(=C/c2ccc(OCCC3CCCCC3)cc2Cl)S1 [Derivative 18, 5-(2-chloro-4-(2-cyclohexylethoxy)benzylidene)thiazolidine-2,4-dione] | 0.0196 µM
3 | O=C1NC(=O)/C(=C/c2cccc(OCCCC3CCCCC3)c2Cl)S1 [Derivative 64, 5-(2-chloro-3-(cyclohexylpropoxy)benzylidene)thiazolidine-2,4-dione] | 0.059 µM
4 | CC1CCC(COc2cccc(/C=C3\SC(=O)NC3=O)c2Cl)CC1 (stereo not drawn) [Derivative 91, 5-{2-chloro-3-[(4-methylcyclohexyl)methoxy]benzylidene}-1,3-thiazolidine-2,4-dione] | 0.135 µM
5 | O=C1NC(=O)/C(=C/c2ccc(OCc3ccc(-c4ccccc4)cc3)cc2)S1 [Derivative 76, 5-(4-(biphenyl-4-ylmethoxy)benzylidene)thiazolidine-2,4-dione] | 0.814 µM
6 | O=C1NC(=O)/C(=C/c2ccc(OCCC3CCCCC3)c(Cl)c2)S1 [Derivative 11, 5-(3-chloro-4-(2-cyclohexylethoxy)benzylidene)thiazolidine-2,4-dione] | 0.0072 µM
7 | O=C1NC(=O)/C(=C/c2ccc(OCCc3ccccc3)cc2)S1 [Derivative 55, 5-[4-(2-phenylethoxy)benzylidene]-1,3-thiazolidine-2,4-dione] | 0.117 µM
8 | O=C1NC(=O)/C(=C/c2ccc(OCCc3ccccc3)c(Cl)c2)S1 [Derivative 69, 5-(3-chloro-4-phenylethoxybenzylidene)thiazolidine-2,4-dione] | 0.0198 µM
9 | O=C1NC(=O)/C(=C/c2ccc(OCCC3CCCCC3)cc2)S1 [Derivative 46, 5-(4-(2-cyclohexylethoxy)benzylidene)thiazolidine-2,4-dione] | 0.0509 µM
10 | O=C1NC(=O)/C(=C/c2ccc(OCCc3cccs3)cc2)S1 [Derivative 3, 5-(4-(2-(thiophen-2-yl)ethoxy)benzylidene)thiazolidine-2,4-dione] | 0.0959 µM
11 | O=C1NC(=O)C(Cc2ccc(OCc3ccccc3)cc2)S1 (stereo not drawn) [Derivative 124, 5-(4-(benzyloxy)benzyl)thiazolidine-2,4-dione] | 1.26 µM
12 | O=C1NC(=O)/C(=C/c2ccc(OCCc3ccccn3)cc2Cl)S1 [Derivative 104] | 8.91 µM
13 | O=C1NC(=S)/C(=C/c2ccc(OCCC3CCCCC3)cc2)S1 [Derivative 13, 5-(4-(2-cyclohexylethoxy)benzylidene)-4-thioxothiazolidin-2-one] | 0.689 µM
14 | O=C1NC(=O)C(Cc2ccc(OCCC3CCCC3)cc2)S1 (stereo not drawn) [Derivative 130, 5-(4-(2-cyclopentylethoxy)benzyl)thiazolidine-2,4-dione] | 0.777 µM
15 | O=C1NC(=O)C(Cc2ccc(OCCCC3CCCCC3)c(Cl)c2)S1 (stereo not drawn) [Derivative 122, 5-(3-chloro-4-(cyclohexylpropoxy)benzyl)thiazolidine-2,4-dione] | 0.143 µM
16 | CCOc1ccc(/C=C2\SC(=O)NC2=O)cc1 [Derivative 41, 5-(4-ethoxybenzylidene)thiazolidine-2,4-dione] | 5.82 µM
17 | O=C1NC(=O)/C(=C/c2cccc(OC3CCCCC3)c2Cl)S1 [Derivative 99, 5-(2-chloro-3-(cyclohexyloxy)benzylidene)thiazolidine-2,4-dione] | 0.212 µM
18 | O=C1NC(=O)/C(=C/c2ccc(OCC3CCC(C(=O)O)CC3)cc2)S1 (stereo not drawn) [Derivative 111, 4-({4-[(Z)-(2,4-dioxo-1,3-thiazolidin-5-ylidene)methyl]phenoxy}methyl)cyclohexane carboxylic acid] | 9.33 µM
19 | CC(C)OCCOc1ccc(/C=C2\SC(=O)NC2=O)cc1Cl [Derivative 94, 5-{3-chloro-4-[2-(propan-2-yloxy)ethoxy]benzylidene}-1,3-thiazolidine-2,4-dione] | 2.74 µM
20 | O=C1NC(=O)C(Cc2ccc(OCC3CCCCC3)cc2)S1 (stereo not drawn) [Derivative 114, 5-(4-(cyclohexylmethoxy)benzyl)thiazolidine-2,4-dione] | 4.06 µM
21 | Cc1cc(/C=C2\SC(=O)NC2=O)ccc1OCC1CCCCC1 [Derivative 51, 5-(4-(2-cyclohexylmethoxy)-3-methylbenzylidene)thiazolidine-2,4-dione] | 0.0498 µM

Row | Compound | IC50
22 | O=C1NC(=O)/C(=C/c2ccc(OC3CCCCC3)cc2)S1 [Derivative 45, 5-(4-(cyclohexyloxy)benzylidene)thiazolidine-2,4-dione] | 0.822 µM
23 | Nc1cc(/C=C2\SC(=O)NC2=O)ccc1OCCC1CCCCC1 [Derivative 50, 5-(3-amino-4-(2-cyclohexylethoxy)benzylidene)thiazolidine-2,4-dione] | 0.286 µM
24 | O=C1NC(=O)/C(=C/c2ccc(OCc3ccc4c(c3)OCO4)cc2)S1 [Derivative 29, 5-(4-(benzo[d][1,3]dioxol-5-ylmethoxy)benzylidene)thiazolidine-2,4-dione] | 0.31 µM
25 | O=C1NC(=O)/C(=C/c2ccc(OCCC3CCCCC3)c(Br)c2)S1 [Derivative 15, 5-(3-bromo-4-(2-cyclohexylethoxy)benzylidene)thiazolidine-2,4-dione] | 0.0066 µM
26 | COc1cc(/C=C2\SC(=O)NC2=O)ccc1OCCc1cccs1 [Derivative 102, 5-(3-methoxy-4-(2-(thiophen-2-yl)ethoxy)benzylidene)thiazolidine-2,4-dione] | 0.682 µM
27 | O=C1NC(=O)/C(=C/c2ccc(OCCNC3CCCCC3)cc2)S1 [Derivative 7, 5-(4-(2-(cyclohexylamino)ethoxy)benzylidene)thiazolidine-2,4-dione] | 2.61 µM
28 | O=C1NC(=O)/C(=C/c2cc(F)c(OCCC3CCCCC3)c(Cl)c2)S1 [Derivative 77, 5-(3-chloro-5-fluoro-4-(2-cyclohexylethoxy)benzylidene)thiazolidine-2,4-dione] | 0.177 µM
29 | O=C1NC(=O)/C(=C/c2ccc(OCC3CCCCC3)cc2Cl)S1 [Derivative 96, 5-(2-chloro-4-(3-cyclohexylmethoxy)benzylidene)thiazolidine-2,4-dione] | 2.45 µM
30 | COC(=O)C1CCC(COc2ccc(/C=C3\SC(=O)NC3=O)cc2)CC1 (stereo not drawn) [Derivative 66, methyl-4-((4-((2,4-dioxothiazolidine-5-ylidene)methyl)phenoxy)methyl)cyclohexane carboxylate] | 0.0204 µM
31 | O=C1NC(=O)/C(=C/c2ccc(OCC3CCCCC3)cc2)S1 [Derivative 42, 5-(4-(cyclohexylmethoxy)benzylidene)thiazolidine-2,4-dione] | 0.217 µM
32 | COc1ccc(/C=C2\SC(=O)NC2=O)cc1OCCc1cccs1 [Derivative 103, 5-(4-methoxy-3-(2-(thiophen-2-yl)ethoxy)benzylidene)thiazolidine-2,4-dione] | 1.67 µM
33 | COc1cc(/C=C2\SC(=O)NC2=O)cc(Cl)c1OCCC1CCCCC1 [Derivative 78, 5-(3-chloro-4-(2-cyclohexylethoxy)-5-methoxybenzylidene) thiazolidine-2,4-dione] | 0.0506 µM
34 | O=C1NC(=O)C(Cc2ccc(OCc3ccccc3)cc2)S1 (stereo not drawn) [Derivative 116, 5-(4-(benzyloxy)benzyl)thiazolidine-2,4-dione] | 5.25 µM
35 | O=C1NC(=O)/C(=C/c2ccc(OCCc3ccsc3)cc2)S1 [Derivative 4, 5-(4-(2-(thiophen-3-yl)ethoxy)benzylidene)thiazolidine-2,4-dione] | 0.148 µM
36 | O=C1NC(=O)/C(=C/c2ccc(OCCCN3CCS(=O)(=O)CC3)cc2)S1 [Derivative 21, 5-[4-(3-thiomorpholine-1,1-dioxidepropoxy)benzylidene]-thiazolidine-2,4-dione] | 3.04 µM
37 | O=C1NC(=O)/C(=C/c2ccc(OCCc3ccccn3)cc2)S1 [Derivative 6, 5-(4-(2-(pyridin-2-yl)ethoxy)benzylidene)thiazolidine-2,4-dione] | 0.592 µM
38 | O=C1NC(=O)/C(=C/c2ccc(OCc3ccccc3)cc2)S1 [Derivative 44, 5-(4-(benzyloxy)benzylidene)thiazolidine-2,4-dione] | 1.04 µM
39 | O=C1NC(=O)/C(=C/c2ccc(OCCC3CCCC3)c(Cl)c2)S1 [Derivative 108, 5-[3-chloro-4-(2-cyclopentylethoxy)benzylidene]-1,3-thiazolidine-2,4-dione] | 0.0993 µM
40 | O=C1NC(=O)/C(=C/c2ccc(O)cc2)S1 [Derivative 39, 5-(4-hydroxybenzylidene)thiazolidine-2,4-dione] | 10.1 µM
41 | O=C1NC(=O)/C(=C/c2cccc(OCCC3CCCCC3)c2Cl)S1 [Derivative 34, 5-(2-chloro-3-(2-cyclohexylethoxy)benzylidene)thiazolidine-2,4-dione] | 0.0179 µM
42 | O=C1NC(=O)/C(=C/c2ccc(OCC3CCCC3)cc2)S1 [Derivative 35, 5-(4-(cyclopentylmethoxy)benzylidene)thiazolidine-2,4-dione] | 0.0425 µM
